Measured values from paper PMC7807051, “Modulation of cAMP metabolism for CFTR potentiation in human airway epithelial cells” (Scientific Reports, 2021).
pEC50, pIC50: −log10 of the molar value. Like-named read-outs stand apart in the source and are kept apart here.

Legend:
ABCC4 [1] = target: T1, ABCC4 (Homo sapiens, UniProt O15439); assay: In vitro extracellular cAMP assay of ABCC4 inhibitors in HBEC6-KT cells; type: cell-based; settings: IBMX 20 μM pre-treatment, forskolin 10 μM, normalized to IBMX + forskolin, read-out: half maximal inhibitory concentration (IC50), extracellular cAMP
T1 construct: ABCC4 was present in both HBEC6-KT and Calu-3 cells at all-time points, indicated by the bands present at 150 kDa; endogenous in cells; host or cells: HBEC6-KT (immortalized human bronchial epithelial cells)
T1 sequence (O15439 1-1325): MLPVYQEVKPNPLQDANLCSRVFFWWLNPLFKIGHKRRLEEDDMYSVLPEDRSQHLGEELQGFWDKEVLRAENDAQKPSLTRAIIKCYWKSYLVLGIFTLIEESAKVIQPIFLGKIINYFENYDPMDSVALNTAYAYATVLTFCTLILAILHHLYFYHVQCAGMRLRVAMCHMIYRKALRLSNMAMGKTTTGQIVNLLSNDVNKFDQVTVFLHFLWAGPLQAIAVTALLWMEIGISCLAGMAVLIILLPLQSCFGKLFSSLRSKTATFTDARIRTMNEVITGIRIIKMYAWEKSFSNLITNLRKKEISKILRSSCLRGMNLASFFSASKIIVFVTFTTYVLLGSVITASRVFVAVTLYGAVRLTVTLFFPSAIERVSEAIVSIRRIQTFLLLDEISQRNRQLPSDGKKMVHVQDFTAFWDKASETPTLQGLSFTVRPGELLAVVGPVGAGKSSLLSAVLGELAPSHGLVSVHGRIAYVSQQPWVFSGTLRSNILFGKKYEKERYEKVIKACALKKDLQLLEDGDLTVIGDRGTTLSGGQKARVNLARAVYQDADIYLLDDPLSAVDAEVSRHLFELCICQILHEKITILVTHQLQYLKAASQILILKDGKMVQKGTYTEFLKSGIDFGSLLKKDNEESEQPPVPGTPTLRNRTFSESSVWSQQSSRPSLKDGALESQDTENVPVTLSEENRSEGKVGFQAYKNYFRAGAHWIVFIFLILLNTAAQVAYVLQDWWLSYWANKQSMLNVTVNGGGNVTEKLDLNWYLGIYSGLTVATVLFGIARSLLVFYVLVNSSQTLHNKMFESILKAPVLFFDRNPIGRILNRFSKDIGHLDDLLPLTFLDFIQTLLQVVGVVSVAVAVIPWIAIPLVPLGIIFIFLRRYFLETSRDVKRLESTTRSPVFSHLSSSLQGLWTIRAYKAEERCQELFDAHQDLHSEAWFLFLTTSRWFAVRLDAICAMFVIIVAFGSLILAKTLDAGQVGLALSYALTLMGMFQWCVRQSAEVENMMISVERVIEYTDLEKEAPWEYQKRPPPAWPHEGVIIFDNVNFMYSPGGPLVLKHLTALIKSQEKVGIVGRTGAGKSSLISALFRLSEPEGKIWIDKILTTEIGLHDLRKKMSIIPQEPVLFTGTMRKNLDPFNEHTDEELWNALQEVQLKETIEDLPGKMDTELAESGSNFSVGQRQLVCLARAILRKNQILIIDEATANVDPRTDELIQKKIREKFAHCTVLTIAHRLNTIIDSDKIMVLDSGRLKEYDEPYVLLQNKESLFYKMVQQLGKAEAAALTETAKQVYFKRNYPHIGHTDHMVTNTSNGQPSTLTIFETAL
Method: (§2) Cells were pretreated with IBMX (20 μM) for 2 h prior to experimental conditions. After the pre-treatment of IBMX, cells were treated with ABCC4 inhibitors (0.01–100 μM) or DMSO for 30 min. Following these exposures, the cells were treated with forskolin (10 μM) for 6 h and cell-culture supernatants were collected for analysis of extracellular cAMP. The negative control was IBMX alone and the positive control was IBMX and forskolin.
(§3) For the in vitro extracellular cAMP assay, values were normalized to the positive control (IBMX and forskolin) and the half maximal inhibitory concentration (IC50) was determined. SD was calculated using data from biological replicates (n = 4–5).
Cell culture supernatants were assessed for cAMP levels 24h post-treatment.

ABCC4 [2] = target: T1, ABCC4; assay: In vitro extracellular cAMP assay of ABCC4 inhibitors in Calu-3 cells; type: cell-based; settings: IBMX 20 μM pre-treatment, forskolin 10 μM, normalized to IBMX + forskolin, read-out: half maximal inhibitory concentration (IC50), extracellular cAMP
Method: Cell culture supernatants were assessed for cAMP levels 24 h post-treatment.
as §2, §3

CFTR [3] = assay: In vitro CFTR membrane potential assay in Calu-3 cells; type: cell-based, human; settings: for pEC50: Calu-3 cells, cAMP inducer alone
Method: (§1) An in vitro CFTR membrane potential assay was performed on Calu-3 cells and primary human bronchial epithelial cells, from two independent donors, cultured at 37 °C as previously described. All human samples were collected from consented individuals under ethics approval granted by Hamilton Integrated Research Ethics Board (Project Number 5099-T).
Calu-3 cells were grown for 21 days on 96-well plates and primary HBECs were grown for 14 days under air–liquid interface conditions on collagen-coated (Sigma-Aldrich) 6.5 mm Transwell Inserts (Corning). All cells were washed with HBSS prior to experimental conditions. After washing with HBSS, cells were loaded with BLUE Membrane Potential Dye (Molecular Devices, #R8042) dissolved in 37 °C chloride-free buffer (NMDG Gluconate Buffer – 150 mM NMDG-gluconate, 3 mM KCl, 10 mM HEPES, pH 7.35, 300 mOsm). Immediately after dye loading, CFTR activity measurements were taken. CFTR activity measurements are fluorescent readouts for detecting ion channel activity. CFTR inhibition was performed with CFTRinh-172 (10 μM) for all experiments to attribute changes in fluorescence as CFTR channel activity. This assay has been validated using proof of concept studies where results obtained from this assay were able to recapitulate findings obtained from direct measurements of ion channel activity using Ussing chambers. At the end of this assay, raw data was exported for statistical analysis.
For Calu-3 cells, measurements were taken during baseline (40 min), cAMP elevation (30 min), and CFTR inhibition (20 min). cAMP elevation was performed using forskolin or isoproterenol (0.0005–50 μM). For assays with ABCC4 or PDE-4 inhibitors, a pre-incubation with the inhibitors (30 min) in the plate reader was performed prior to cAMP elevation. CFTR modulator VX-770 was used at 1 μM. CFTR activity was determined by dividing a single membrane potential peak measurement after the ABCC4 or PDE-4 inhibition and cAMP elevation additions to the stabilized baseline over DMSO control.
For in vitro CFTR membrane potential assays, in Calu-3 cells, values were normalized to the averaged baseline over averaged vehicle (DMSO) control of all biological replicates. SD was calculated using data from biological replicates (n = 4–8). An area under the curve (AUC), half-maximal concentration (EC50), […] (Emax), and baseline analysis was performed for each individual replicate then averaged together. The AUC analysis is an aggregate measure of sensitivity and maximal response, allowing for the observation of the total net responsiveness of the cells. The AUC analysis was done by normalizing the individual replicates to the bottom most value of the averaged vehicle control. In primary HBECs, six independent measurements were taken within a single Transwell insert. The value is the average of at least six measurements. These values were normalized to the averaged baseline over the averaged vehicle (DMSO) control. SD was calculated by treating the six measurements as independent, with additional technical replicates (n = 6–18). An AUC and max peak analysis were performed for each measurement, then averaged together. The max peak analysis was the max CFTR activity achieved during the drug addition step.
In order to compare the independent experiments performed, a fold-change analysis using individual AUC, EC50, and Emax, determined from their respective concentration–response curves, was performed and was normalized to the averaged DMSO vehicle control. A one-way ANOVA with subsequent post-hoc test or a paired t-test was performed. Statistical analysis was performed using GraphPad Prism 6.

CFTR [4] = target: T2, CFTR (Homo sapiens, UniProt P13569); assay: In vitro CFTR membrane potential assay in primary human bronchial epithelial cells (air–liquid interface); type: cell-based; settings: primary HBECs, one donor sample; forskolin 10 μM; VX-770 1 μM, MK-571 1.8 μM, Roflumilast 1 μM
T2 construct: endogenous in cells; host or cells: primary human bronchial epithelial cells from two donors, air–liquid interface
T2 sequence (P13569 whole entry): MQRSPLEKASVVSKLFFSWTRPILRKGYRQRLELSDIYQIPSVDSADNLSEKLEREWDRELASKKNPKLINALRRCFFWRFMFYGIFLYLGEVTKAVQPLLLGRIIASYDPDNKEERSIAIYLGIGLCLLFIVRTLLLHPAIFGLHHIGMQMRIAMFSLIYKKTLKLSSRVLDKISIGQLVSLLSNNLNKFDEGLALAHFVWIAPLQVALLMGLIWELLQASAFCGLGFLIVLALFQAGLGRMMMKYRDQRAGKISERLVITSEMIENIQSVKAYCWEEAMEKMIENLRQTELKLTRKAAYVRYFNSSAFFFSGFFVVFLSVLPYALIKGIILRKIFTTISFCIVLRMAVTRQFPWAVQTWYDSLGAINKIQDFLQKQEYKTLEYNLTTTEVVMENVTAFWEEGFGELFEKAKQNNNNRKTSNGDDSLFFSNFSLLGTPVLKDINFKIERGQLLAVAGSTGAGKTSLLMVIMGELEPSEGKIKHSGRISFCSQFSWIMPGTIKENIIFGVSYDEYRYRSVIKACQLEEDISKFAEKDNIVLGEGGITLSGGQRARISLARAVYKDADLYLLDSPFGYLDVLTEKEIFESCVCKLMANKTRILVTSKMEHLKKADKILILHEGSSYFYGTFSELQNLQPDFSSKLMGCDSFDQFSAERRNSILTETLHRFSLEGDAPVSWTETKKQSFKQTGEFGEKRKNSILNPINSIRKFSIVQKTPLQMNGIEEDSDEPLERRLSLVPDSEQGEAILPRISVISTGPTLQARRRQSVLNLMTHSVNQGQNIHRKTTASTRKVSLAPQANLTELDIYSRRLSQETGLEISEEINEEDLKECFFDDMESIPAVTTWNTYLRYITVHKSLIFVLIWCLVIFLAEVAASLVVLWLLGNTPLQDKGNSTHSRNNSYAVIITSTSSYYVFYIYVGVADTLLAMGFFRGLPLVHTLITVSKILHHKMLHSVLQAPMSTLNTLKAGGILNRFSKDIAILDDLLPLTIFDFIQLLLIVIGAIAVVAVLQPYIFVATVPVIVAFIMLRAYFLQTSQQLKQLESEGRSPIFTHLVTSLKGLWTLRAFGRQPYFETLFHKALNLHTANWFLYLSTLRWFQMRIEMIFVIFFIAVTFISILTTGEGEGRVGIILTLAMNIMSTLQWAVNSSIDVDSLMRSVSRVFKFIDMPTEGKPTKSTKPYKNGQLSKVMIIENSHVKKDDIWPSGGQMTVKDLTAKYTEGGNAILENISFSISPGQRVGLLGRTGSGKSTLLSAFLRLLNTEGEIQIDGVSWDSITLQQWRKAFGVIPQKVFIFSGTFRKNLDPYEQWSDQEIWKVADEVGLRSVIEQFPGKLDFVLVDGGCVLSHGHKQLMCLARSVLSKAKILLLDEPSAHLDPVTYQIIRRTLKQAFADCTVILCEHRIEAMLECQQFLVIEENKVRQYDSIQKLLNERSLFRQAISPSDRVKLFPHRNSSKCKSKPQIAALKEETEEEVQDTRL
Method: as §1
Calu-3 cells were grown for 21 days on 96-well plates and primary HBECs were grown for 14 days under air–liquid interface conditions on collagen-coated (Sigma-Aldrich) 6.5 mm Transwell Inserts (Corning). All cells were washed with HBSS prior to experimental conditions. […] CFTR activity measurements are fluorescent readouts for detecting ion channel activity. CFTR inhibition was performed with CFTRinh-172 (10 μM) for all experiments to attribute changes in fluorescence as CFTR channel activity. […]
For primary HBECs, measurements were taken during baseline (8 min), drug additions (40 min), and CFTR inhibitions (18 min). cAMP elevation was performed using forskolin (10 μM). […] CFTR activity was determined by averaging six independent measurements within a single Transwell insert. […]
For in vitro CFTR membrane potential assays, in Calu-3 cells, values were normalized to the averaged baseline over averaged vehicle (DMSO) control of all biological replicates. SD was calculated using data from biological replicates (n = 4–8). […]

CFTR [5] = system: CFTR; design: method as in PMID 24106801; settings: primary non-CF HBECs; cited from earlier work
CFTR [6] = system: CFTR; design: method as in PMID 24106801; settings: Calu-3 cells; cited from earlier work
[7] = Calu-3, forskolin (FSK) curve with agent vs DMSO control
[8] = Calu-3, forskolin (FSK) curve with agent vs DMSO control, VX-770 1 μM, MK-571 1.8 μM, Ceefourin-1 4.8 μM, Roflumilast 1 μM, Rolipram 10 μM, IBMX 100 μM
[9] = Calu-3, isoproterenol (ISO) curve with agent vs DMSO control
[10] = Calu-3, isoproterenol (ISO) curve with agent vs DMSO control, same agent concentrations as E5
[11] = read-out: half maximal effective concentration (EC50), CFTR activity

| SMILES | pIC50 (ABCC4 [1]) | pIC50 (ABCC4 [2]) | Baseline of concentration–response curve, CFTR activity (CFTR [3]; [7]) | EC50 of concentration–response curve, CFTR activity (CFTR [3]; [7]) | Emax of concentration–response curve, CFTR activity (CFTR [3]; [7]) | AUC of concentration–response curve, CFTR activity (CFTR [3]; [8]) | Baseline of concentration–response curve, CFTR activity (CFTR [3]; [9]) | EC50 of concentration–response curve, CFTR activity (CFTR [3]; [9]) | Emax of concentration–response curve, CFTR activity (CFTR [3]; [9]) | AUC of concentration–response curve, CFTR activity (CFTR [3]; [10]) | pEC50 (CFTR [3]; [11]) | maximal degree of change for CFTR activity (CFTR [3]; Calu-3, ISO compared with FSK, inducers alone) | pEC50 (CFTR [3]; value in picture, no unit, read-out: EC50, CFTR activity (Figure 3)) | AUC of CFTR activity time course compared with VX-770 alone (CFTR [4]) | max peak of CFTR activity compared with VX-770 alone (CFTR [4]) | CFTR activation (CFTR [5]) | CFTR potentiation beyond max FSK stimulation (CFTR [6]) |
| --- | --- | --- | --- | --- | --- | --- | --- | --- | --- | --- | --- | --- | --- | --- | --- | --- | --- |
| Cn1c(CSc2nc3ccccc3s2)n[nH]c1=S [Ceefourin-1] | 5.32 | 6.15 | No combination of ABCC4 inhibitor and cAMP-elevating agent changed CFTR activity | No combination of ABCC4 inhibitor and cAMP-elevating agent changed CFTR activity | No combination of ABCC4 inhibitor and cAMP-elevating agent changed CFTR activity | No combination of ABCC4 inhibitor and cAMP-elevating agent changed CFTR activity | No combination of ABCC4 inhibitor and cAMP-elevating agent changed CFTR activity | No combination of ABCC4 inhibitor and cAMP-elevating agent changed CFTR activity | No combination of ABCC4 inhibitor and cAMP-elevating agent changed CFTR activity | No combination of ABCC4 inhibitor and cAMP-elevating agent changed CFTR activity | – | – | – | – | – | – | – |
| C=C[C@@]1(C)CC(=O)[C@]2(O)[C@@]3(C)[C@@H](O)CCC(C)(C)[C@@H]3[C@H](O)[C@H](OC(C)=O)[C@@]2(C)O1 [FSK, forskolin] | – | – | – | – | – | – | – | – | – | – | 6.72 | – | – | – | – | – | – |
| CC(C)Cn1c(=O)n(C)c(=O)c2[nH]cnc21 [IBMX] | – | – | – | – | – | Significant increases | significant increases | – | – | Significant increases | – | – | – | – | – | – | – |
| CC(C)NCC(O)c1ccc(O)c(O)c1 (stereo not drawn) [ISO, isoproterenol] | – | – | – | – | – | – | – | – | – | – | 7.15 | greater | 7.18 | – | – | – | – |
| CN(C)C(=O)CCSC(SCCC(=O)O)c1cccc(/C=C/c2ccc3ccc(Cl)cc3n2)c1 (stereo not drawn) [MK-571] | – | – | No combination of ABCC4 inhibitor and cAMP-elevating agent changed CFTR activity | No combination of ABCC4 inhibitor and cAMP-elevating agent changed CFTR activity | No combination of ABCC4 inhibitor and cAMP-elevating agent changed CFTR activity | No combination of ABCC4 inhibitor and cAMP-elevating agent changed CFTR activity | No combination of ABCC4 inhibitor and cAMP-elevating agent changed CFTR activity | No combination of ABCC4 inhibitor and cAMP-elevating agent changed CFTR activity | No combination of ABCC4 inhibitor and cAMP-elevating agent changed CFTR activity | No combination of ABCC4 inhibitor and cAMP-elevating agent changed CFTR activity | – | – | – | – | – | – | – |
| O=C(Nc1c(Cl)cncc1Cl)c1ccc(OC(F)F)c(OCC2CC2)c1 [Roflumilast] | – | – | not different | not different | not different | not FSK | not different | not different | not different | significant increases | – | – | – | significantly greater than VX-770 alone | significantly greater than VX-770 alone | led to CFTR activation | did not potentiate CFTR activity beyond the max stimulation that resulted from the addition of FSK |
| COc1ccc(C2CNC(=O)C2)cc1OC1CCCC1 (stereo not drawn) [Rolipram] | – | – | not different | not different | not different | not FSK | not different | not different | not different | significant increases | – | – | – | – | – | – | – |
